Like-named read-outs stand apart in the source and are kept apart here. Residues, ends and D or L forms follow the SMILES beside them.
Key:
[1] = system: Arachidonic Acid Induced Myeloperoxidase Activity in Mouse Ear; assay: myeloperoxidase activity in AA-treated mouse ear tissue (marker for PMNs); type: in vivo, mice; conditions: minipump
Experimental: Myeloperoxidase activity in ear tissue was measured as a marker for the presence or absence of polymorphonuclear leukocytes (PMNs) (Barone et al., 1991, J. Neurosci. Res. 29:336-345). After measurement of ear thickness, ears were dissected from the mice and homogenized in 50mM Tris-HCL, pH 7.4 at 4°C to give a 10% (w/v) homogenate. Aliquots of the homogenate were used to determine the amount of myeloperoxidase activity present in the tissue using o-dianisidine (Sigma Chem Co., St. Louis MO) and hydrogen peroxide as substrates and monitoring chromophore generation at 460 nm (Barone et al., 1991, J. Neurosci. Res. 29:336-345).

neutrophils [2] = assay: neutrophil chemotaxis to leukotriene B4 (Neuroprobe chambers); type: cell-based; conditions: fluorescence at 530 nm, 1 hr; FIGURE 4
Experimental: The ability of CT-112 (SEQ. ID NO: 1) to inhibit chemotaxis of neutrophils in response to a variety of agents was assessed using Neuroprobe chemotaxis chambers. For these assays, neutrophils were resuspended in Hank's balanced salt solution with Ca^2+ and Mg^2+ to give a 5 x 10^6 cells/ml suspension after the cells were labeled with 1',7'-bis(2-carboxyethyl)-5-(6)-carboxyfluorescein. The neutrophils were exposed to CT-112 (SEQ. ID NO: 1) for approximately 15 min prior to addition to the chemotaxis chambers. CT-112 (SEQ. ID NO: 1) was present in both the top and bottom of the chambers, and the chemoattractant, either f-Met-Leu-Phe, leukotriene B4 or interleukin-8, was added to the bottom of chamber. Cells which had migrated through the membrane were determined by fluorescence at 530 nm at 1 hr after initiation of the assay.

neutrophils [3] = assay: neutrophil viability, trypan blue exclusion; type: cell-based; conditions: FIGURE 3
Text: In addition, CT-112 (SEQ. ID NO: 1) was not cytotoxic to neutrophils, as determined by viability testing using trypan blue exclusion (FIGURE 3).

[4] = system: collagen-induced arthritis; type: in vivo, Mice
Experimental: Mice (DBA/1, 10-12 weeks old, Jackson Laboratories) were randomly assigned to one of 3 groups of […]. CT-112 (SEQ. ID NO: 1) was prepared for injection by dissolving in sterile PBS. CT-112 (SEQ. ID NO: 1) was administered daily according to the following schedule: • a) Control animals (0.1 ml of sterile PBS) (7 mice); • b) Low dose CT-112 (0.1 ml sterile PBS containing 0.25 mg CT-112 at 10 mg/kg) (8 mice); and • c) High dose CT-112 (0.1 ml sterile PBS containing 2.5 mg of CT-112 at 100 mg/kg) (8 mice). Three days after initial dosing with CT-112 (SEQ. ID NO: 1), all mice were injected intradermally at the base of the tail with 100 µg of bovine type-II collagen in Freund's complete adjuvant. Mice were monitored daily for the onset of disease, and weighed twice weekly with overall health status noted. Arthritis-affected animals were clinically assessed 5 times per week until 10 weeks post-immunization. Paw measurements were taken 3 times per week. Mice lacking signs of arthritis 10 weeks post-immunization were considered disease-free. All mice were pre-bled prior to the start of the trial, subsequently again at 2 and 4 weeks post-immunization, again at the onset of CIA, and finally at the termination of the study. Sera were separated and stored at -80°C. ELISA assays were performed to determine anti-collagen antibody concentrations. Spleen and lymph nodes were removed at sacrifice, and single cell suspensions prepared therefrom. Mitogen responses to Con A and LPS, as well as antigen-specific responses to type-II collagen, were determined. Appropriate statistical comparisons (Chi square, Student's T-test and non-parametric median comparisons) were performed using SPSS/PC software to assess the influence of CT-112 (SEQ. ID NO: 1) at both low and high doses on the incidence, onset, severity and progression of collagen-induced arthritis, the antibody response to collagen, T-cell and B-cell mitogen responses, and T-cell specific responses to type-II collagen.

Salmonella = Salmonella reverse mutation assay; type: cell-based; conditions: 100-5,000 µg/ml, with or without rat liver microsomal enzyme activation
Text: The mutagenic potential of CT-112 (SEQ. ID NO: 1) has been assessed.

[5] = system: mouse bone marrow polychromatic erythrocyte; assay: mouse bone marrow polychromatic erythrocyte micronucleus assay; type: in vivo; conditions: 62.5, 125 and 250 mg/kg; after 24, 48 or 72 hr
acute toxicity in rats = type: in vivo; conditions: rats, 100, 500 or 1,000 mg/kg
Experimental: Rats were dosed with CT-112 (SEQ. ID NO: 1) at 100, 500 or 1,000 mg/kg. […] All rats returned to normal appearance the day after treatment.

With CC(C)[C@H](NC(=O)[C@H](CCC(N)=O)NC(=O)[C@H](CO)NC(=O)[C@@H](NC(=O)[C@@H](N)[C@@H](C)O)[C@@H](C)O)C(=O)N[C@@H](CCCNC(=N)N)C(=O)N1CCC[C@H]1C(=O)N[C@@H](CCCNC(=N)N)C(=O)O [CT-112, Thr-Thr-Ser-Gln-Val-Arg-Pro-Arg] (H-TTSQVRPR-OH) the “Myeloperoxidase Activity” value ([1]; 0.05 mg/animal/day) was 19.6 ± 15.6 µmole of chromophore formed/min, the “Myeloperoxidase Activity” value ([1]; 0.1 mg/animal/day) was 17.0 ± 9.6 µmole of chromophore formed/min and the “Myeloperoxidase Activity” value ([1]; 1.0 mg/animal/day) was 14.7 ± 13.3 µmole of chromophore formed/min. The “chemotactic migration of neutrophils to LTB4” value (neutrophils [2]) was “effectively inhibited”, the “cytotoxicity to neutrophils, viability” value (neutrophils [3]) was “not cytotoxic” and the “Antibody reduction (anti-collagen antibody titer in mouse serum)” value ([4]; 4 wks post-immunization, high dose group, p=0.028) was “statistically significant”. The “effects on synovitis and pannus” value ([4]; both high and low doses) was “not significant”, the “disease-induced joint erosion (histopathology)” value ([4]; both high and low doses, FIGURE 13) was “reducing” and the “disease-induced loss of joint architecture (histopathology)” value ([4]; both high and low doses, p ≤ 0.05, FIGURE 13) was “significantly reducing”. For the same compound, the “Spleen cell response to Con A and to LPS” value ([4]; cells from treated mice) was “neither immunosuppression nor immunoactivation”, the “final incidence of CIA” value ([4]; high dose, 100 mg/kg daily) was 50% and the onset of arthritis ([4]; low (10 mg/kg) and high (100 mg/kg) daily doses, compared to control mice) was “somewhat retarded”. The “antibody titers at the conclusion of the trial” value ([4]; low dose group vs control mice) was “significantly higher”, the “final incidence of CIA” value ([4]; low dose, 10 mg/kg daily) was 62.5% and the “involved paws characterized as in remission at the conclusion of the trial” value ([4]; low dose, 10 mg/kg daily) was 25%. For the same compound, the “progression of arthritis to paws” value ([4]; low dose, 10 mg/kg daily, p=0.035 vs control) was “significantly fewer paws”, the Maximum paw swelling ([4]; mouse, in vivo) was “not influenced” and the weight gain ([4]; mouse, in vivo) was “gained weight at the same rate”. The “Cellular responses to mitogens and antigen (type-II collagen) in lymph node cells” value ([4]; treated mice vs control animals) was “similar”, the “number of revertants (histidine independent growth)” value (Salmonella) was “did not cause an increase” and the micronuclei [5] was “did not induce a significant increase”. The lesions at necropsy (acute toxicity in rats) was “No lesions were visible”, the “mean body weight or mean body weight gain” value (acute toxicity in rats; control vs treated) was “no statistical differences” and the clinical effects (acute toxicity in rats; several rats at 500 and 1,000 mg/kg, day of treatment) was “Transient clinical effects (hypoactivity, hypersensitiviy, staggered gait, cyanosis and absence of righting reflex)”.
